Results reported in patent US11357779B2 (G1 Therapeutics, Inc., priority 2018, dated 2022).
Read-outs that look alike come from different tables or passages of the source.

Tests used:
[1] = Pharmacokinetics of Compound I in healthy volunteers after a single dose of Form B of Compound II; type: in vivo, human; details: for AUC(0-inf) / Cmax / Tmax / half-life / Vd/F: human, oral; for Vd/F: read-out: Vz/F
Procedure: Table 84 provides the pharmacokinetic parameters of Compound I upon administration of a single dose of Form B of Compound II (48, 100, 200, 300, 400, or 600 mg) in healthy volunteers. Blood samples for analysis of Compound I were collected pre-dose and 0.25, 0.5, 1, 1.5, 2, 3, 4, 6, 8, 12, 24, 36, 48, 72, and 96 hours post-dose.

[2] = Crystallization and slurry experiments, morphic forms of Compound II (XRPD, characterization); type: physicochemical; details: for Time point (1 day) XRPD: Stirring at RT
Procedure: Eleven unique XRPD patterns (Form A-Form K) of Compound II were obtained from crystallization and slurry experiments using various solvents.
Forms A, B, and D were evaluated as solid state forms.

[3] = TG and TG-IR analysis of Form B; type: physicochemical
Procedure: The TG analyses were performed using a TA Instrument Q5000 thermogravimetric analyzer. Temperature calibration was performed using nickel and Alumel. The sample was placed in a platinum pan and inserted into the TG furnace. The furnace was heated under a nitrogen purge to 350° C. at a rate of 10° C./min.
Thermogravimetric infrared (TG-IR) analysis was performed on a TA Instruments Q5000 IR thermogravimetric (TG) analyzer interfaced to a Magna-IR 560@ Fourier transform infrared (FT-IR) spectrophotometer (Thermo Nicolet) equipped with an Ever-Glo mid/far IR source, a potassium bromide (KBr) beamsplitter, and a mercury cadmium telluride (MCT-A) detector. The FT-IR wavelength verification was performed using polystyrene, and the TG calibration standards were nickel and Alumel™. The sample was placed in a platinum sample pan and the pan was inserted into the TG furnace. The TG instrument was started first, immediately followed by the FT-IR instrument. The TG instrument was operated under a flow of helium at 90 and 10 cc/minute for the purge and balance, respectively. The furnace was heated under helium at a rate of 20° C./minute to a final temperature of approximately 140° C. IR spectra were collected approximately every 32 seconds for approximately 7.5 minutes. Each IR spectrum represents 32 co-added scans collected at a spectral resolution of 4 cm-1. Volatiles were identified from a search of the High Resolution Nicolet Vapor Phase spectral library.
A TG-IR experiment was carried out on pure Form B (Sample 11 from the small-scale slurry experiments) at […] in an effort to investigate the stability of Form B at elevated temperature by monitoring potential release of hydrogen chloride.

[4] = blood, single 100 mg dose of Form B of Compound II
[5] = blood, single 200 mg dose of Form B of Compound II
[6] = blood, single 300 mg dose of Form B of Compound II
[7] = plasma, single 48 mg dose of Form B of Compound II
[8] = plasma, single 400 mg dose of Form B of Compound II
[9] = plasma, single 600 mg dose of Form B of Compound II

## CC(C)N1CCN(c2ccc(Nc3ncc4cc5n(c4n3)C3(CCCCC3)CNC5=O)nc2)CC1 [Compound I, 2′-((5-(4-isopropylpiperazin-1-yl)pyridin-2-yl)amino)-7′,8′-dihydro-6′H-spiro[cyclohexane-1,9′-pyrazino[1′,2′:1,5]pyrrolo[2,3-d]pyrimidin]-6′-one]
[1]; [4]
  AUC(0-inf): 60.2 ng·h/mL
  Cmax: 9.23 ng/mL
  Tmax: 2 h
  half-life: 4.71 h
  Vd/F: 11300 L
[1]; [5]
  AUC(0-inf): 275 ng·h/mL
  Cmax: 29.3 ng/mL
  Tmax: 3 h
  half-life: 13.8 h
  Vd/F: 14500 L
[1]; [6]
  AUC(0-inf): 349 ng·h/mL
  Cmax: 27 ng/mL
  Tmax: 3.5 h
  half-life: 15.4 h
  Vd/F: 19100 L
[1]; blood, single 400 mg dose of Form B of Compound II
  Tmax: 5 h
[1]; [7]
  AUC(0-inf): 20.4 ng·h/mL
  Cmax: 3.65 ng/mL
  Tmax: 2 h
  half-life: 3.07 h
  Vd/F: 10400 L
[1]; [8]
  AUC(0-inf): 432 ng·h/mL
  Cmax: 26.3 ng/mL
  half-life: 14.9 h
  Vd/F: 19900 L
[1]; [9]
  AUC(0-inf): 886 ng·h/mL
  Cmax: 59 ng/mL
  Tmax: 6 h
  half-life: 17.2 h
  Vd/F: 16800 L
[1]; single 48 mg dose of Form B of Compound II
  CL/F: 2354 L/h
[1]; single 100 mg dose of Form B of Compound II
  CL/F: 1660 L/h
[1]; single 200 mg dose of Form B of Compound II
  CL/F: 727 L/h
[1]; single 300 mg dose of Form B of Compound II
  CL/F: 861 L/h
[1]; single 400 mg dose of Form B of Compound II
  CL/F: 926 L/h
[1]; single 600 mg dose of Form B of Compound II
  CL/F: 677 L/h

## CC(C)N1CCN(c2ccc(Nc3ncc4cc5n(c4n3)C3(CCCCC3)CNC5=O)nc2)CC1 [Compound II, 2′-((5-(4-isopropylpiperazin-1-yl)pyridin-2-yl)amino)-7′,8′-dihydro-6′H-spiro[cyclohexane-1,9′-pyrazino[1′,2′:1,5]pyrrolo[2,3-d]pyrimidin]-6′-one]
[2]; MeOH/0.5 mL, 60.0° C., Fast Cooling (4° C.), anti solvent EtOAc/0.2 mL, ppt/filter
  XRPD: Weak crystalline
[2]; MeOH/0.5 mL, 60.0° C., Fast Cooling (4° C.), anti solvent n-BuOH/5.0 mL, ppt/filter
  XRPD: Weak crystalline
[2]; MeOH/0.5 mL, 60.0° C., Fast Cooling (4° C.), anti solvent n-PrOH/5.0 mL, ppt/filter
  XRPD: Weak crystalline
[2]; MeOH/0.5 mL, 60.0° C., Slow Cooling (20° C./hr), anti solvent Acetone/0.5 mL, ppt/filter
  XRPD: Weak crystalline
[2]; MeOH/0.5 mL, 60.0° C., Slow Cooling (20° C./hr), anti solvent EtOH/5.0 mL, ppt/filter
  XRPD: Weak crystalline
[2]; MeOH/0.5 mL, 60.0° C., Slow Cooling (20° C./hr), anti solvent MIBK/0.1 mL, ppt/filter (first listing)
  XRPD: Weak crystalline
[2]; MeOH/0.5 mL, 60.0° C., Slow Cooling (20° C./hr), anti solvent MeCN/2.5 mL, ppt/filter
  XRPD: Weak crystalline
[2]; MeOH/0.5 mL, 60.0° C., Slow Cooling (20° C./hr), anti solvent THF/0.5 mL, ppt/filter
  XRPD: Weak crystalline
[2]; MeOH/0.5 mL, 60.0° C., Slow Cooling (20° C./hr), anti solvent Toluene/1.5 mL, ppt/filter (second listing)
  XRPD: Weak crystalline
[2]; MeOH/0.5 mL, 60.0° C., Slow Cooling (20° C./hr), anti solvent n-BuOH/5.0 mL, ppt/filter
  XRPD: Weak crystalline
[2]; MeOH/0.5 mL, 60.0° C., Slow Cooling (20° C./hr), anti solvent n-PrOH/5.0 mL, ppt/filter
  XRPD: Weak crystalline
[2]; Water/0.5 mL, 60.0° C., Fast Cooling (4° C.), anti solvent EtOH/5.0 mL, Clear/Evap.
  XRPD: Weak crystalline
[2]; Water/0.5 mL, 60.0° C., Fast Cooling (4° C.), anti solvent MeCN/5.0 mL, ppt/filter
  XRPD: Weak crystalline
[2]; Water/0.5 mL, 60.0° C., Fast Cooling (4° C.), anti solvent THF/3.0 mL, ppt/filter
  XRPD: Weak crystalline
[2]; Water/0.5 mL, 60.0° C., Fast Cooling (4° C.), anti solvent n-PrOH/5.0 mL, Clear/Evap.
  XRPD: Weak crystalline
[2]; Water/0.5 mL, 60.0° C., Slow Cooling (20° C./hr), anti solvent EtOH/5.0 mL, Clear/Evap.
  XRPD: Weak crystalline
[2]; single solvent crystallization: 1-BuOH 4.0 mL, 60° C., Fast Cooling (4° C.), ppt/filter
  XRPD: Weak
[2]; single solvent crystallization: 1-PrOH 4.0 mL, 60° C., Fast Cooling (4° C.), ppt/filter
  XRPD: Weak
[2]; single solvent crystallization: 1-PrOH 4.0 mL, 60° C., Slow (20° C./hr), ppt/filter
  XRPD: Weak
[2]; single solvent crystallization: MeOH 0.5 mL, 60° C., Fast Cooling (4° C.), ppt/filter
  XRPD: Weak
[2]; single solvent crystallization: Water 2.0 mL, 60° C., Fast Cooling (4° C.), Turbid/Evap.
  XRPD: Weak
[2]; single solvent crystallization: Water 2.0 mL, 60° C., Slow (20° C./hr), Turbid/Evap.
  XRPD: Weak
[2]; slurry in 2-MeTHF 1.0 mL
  Time point (1 day) XRPD: Weak
[2]; slurry in IPAc 1.0 mL
  Time point (1 day) XRPD: A with extra
[2]; slurry in MEK 1.0 mL
  Time point (1 day) XRPD: Weak
[2]; slurry in THF 1.0 mL
  Time point (1 day) XRPD: Weak
[3]; at 26-120° C., 125 mg/mL Slurry, 30° C., 43 h VF, washed, Air-dried for 3.5 h
  TGA weight loss: 10% weight loss at 26-
[3]; at 26-120° C., Vacuum drying, 22° C., 0.5 h, 15 in Hg, 22° C. 1.5 h, 27-28 in Hg
  TGA weight loss: 9.9% weight loss at 26-
[3]; at 31-120° C., Vacuum drying, 22° C., 2.0 h, 27 in Hg
  TGA weight loss: 7.5% weight loss at 31-
